Values after ≈ are worked out from the molar mass of the structure shown. Active and inactive are the calls of the source. The calls are words filed in the database; no cut-off is given here.
Experiments:
Trypanosoma cruzi [1] = assay: Antitrypanosomal activity against epimastigote stage of Trypanosoma cruzi Dm28c assessed as parasite viability at 2 ug/ml after 24 hrs by eosin exclusion based hemocytometry; type: functional
[2] = Cytotoxicity against african green monkey Vero cells assessed as cell viability at 10 ug/ml after 24 hrs by eosin staining based microscopy; conditions: chlorocebus sabaeus, read-out: Activity
Trypanosoma cruzi [3] = assay: Antitrypanosomal activity against epimastigote stage of Trypanosoma cruzi Dm28c assessed as parasite viability at 5 ug/ml after 24 hrs by eosin exclusion based hemocytometry; type: functional
[4] = Cytotoxicity against african green monkey Vero cells assessed as cell viability at 5 ug/ml after 24 hrs by eosin staining based microscopy; conditions: chlorocebus sabaeus, read-out: Activity
[5] = Cytotoxicity against african green monkey Vero cells assessed as cell viability at 1 ug/ml after 24 hrs by eosin staining based microscopy; conditions: chlorocebus sabaeus, read-out: Activity
[6] = Cytotoxicity against african green monkey Vero cells assessed as cell viability at 2 ug/ml after 24 hrs by eosin staining based microscopy; conditions: chlorocebus sabaeus, read-out: Activity
Trypanosoma cruzi [7] = assay: Antitrypanosomal activity against epimastigote stage of Trypanosoma cruzi Dm28c assessed as parasite viability at 10 ug/ml after 24 hrs by eosin exclusion based hemocytometry; type: functional
Trypanosoma cruzi [8] = assay: Antitrypanosomal activity against epimastigote stage of Trypanosoma cruzi Dm28c assessed as parasite viability at 1 ug/ml after 24 hrs by eosin exclusion based hemocytometry; type: functional
Trypanosoma cruzi [9] = assay: Trypanocidal activity against epimastigote stage of Trypanosoma cruzi Dm28c assessed as induction of vacuolization at 5 ug/ml after 48 hrs by lead citrate staining based microscopy; type: functional, organism-based
Trypanosoma cruzi [10] = assay: Antitrypanosomal activity against epimastigote stage of Trypanosoma cruzi Dm28c assessed as reduction in parasite viability at after 24 hrs by eosin exclusion based hemocytometry; type: functional, organism-based

| Structure (SMILES) | Parasite viability (Trypanosoma cruzi [1]) [%] | viability at 24 h, 10 ug/ml [2] [%] | Parasite viability (Trypanosoma cruzi [3]) [%] | viability at 24 h, 5 ug/ml [4] [%] | viability at 24 h, 1 ug/ml [5] [%] | viability at 24 h, 2 ug/ml [6] [%] | Parasite viability (Trypanosoma cruzi [7]) [%] | Parasite viability (Trypanosoma cruzi [8]) [%] | Activity (Trypanosoma cruzi [9]) | IC50 (Trypanosoma cruzi [10]) [µg/mL] |
| --- | --- | --- | --- | --- | --- | --- | --- | --- | --- | --- |
| C=CCOC1=C(C(C)C)C(=O)C2=C(C1=O)[C@]13CCC[C@](C)(C(=O)OC1)[C@@H]3C=C2 | 65.5 | 85.5 | 29.5 | 99.1 | 99.8 | 99.6 | 18.3 | 85.5 |  |  |
| CC(C)C1=C(O)C(=O)C2=C(C=C[C@@H]3[C@]24CCC[C@]3(C)C(=O)OC4)C1=O | 76.4 | 88.4 | 49.7 | 98.8 | 99.2 | 99.5 | 16.3 | 99.2 | Active | 5 (≈ 14.6 µM) |
| CC(=O)OC1=C(C(C)C)C(=O)C2=C(C1=O)[C@]13CCC[C@](C)(C(=O)OC1)[C@@H]3C=C2 | 89.5 | 92.4 | 39.5 | 99.2 | 99.8 | 99.7 | 16.3 | 99.2 |  |  |
| CC(C)C1=C(O[Si](C)(C)C)C(=O)C2=C(C=C[C@@H]3[C@]24CCC[C@]3(C)C(=O)OC4)C1=O | 49.5 | 83.6 | 29.5 | 99.1 | 99.7 | 99.6 | 15.3 | 85.5 |  | 2 (≈ 4.82 µM) |

From ChEMBL document CHEMBL3734726, “An abietane diterpene from Salvia cuspidata and some new derivatives are active against Trypanosoma cruzi” (Bioorg Med Chem Lett, 2015)
